From PMC2771923 (Journal of medicinal chemistry, 2008)

Key:
[1] = molecular target: PRWT (optimized wild-type HIV-1 PR) (Human immunodeficiency virus type 1 group M subtype B, UniProt P04585, C555A/C583A/L521I/L551I/Q495K)
[2] = molecular target: PRV32I (V32I mutant HIV-1 PR) (Human immunodeficiency virus type 1 group M subtype B, UniProt P04585, C555A/C583A/L521I/L551I/Q495K/V520I)
PR dimers = details: fluorescent-tagged PR monomers; cited from earlier work
HIV-1 PR = HIV-1 PR (Human immunodeficiency virus type 1 group M subtype B, UniProt P04585); details: cited from earlier work

Compound	γ (factor of γKi) [1]	δ (factor of δKi) [1]	Ki^uncomp (uncompetitive inhibition constant) ([1]; from intercept replots of Lineweaver-Burk plots) [µM]	γKi smaller compared to Ki^uncomp ([1]; ratio Ki^uncomp / γKi) [fold]	γ (factor of γKi) [2]	δ (factor of δKi) [2]	inhibition of the formation of PR dimers (PR dimers)	type of inhibition [1]	type of inhibition [2]	affinity for HIV-1 PR (HIV-1 PR)	dissociation rate (HIV-1 PR)
CC(C)CN(C[C@@H](O)[C@H](Cc1ccccc1)NC(=O)O[C@H]1CCOC1)S(=O)(=O)c1ccc(N)cc1 [APV, amprenavir]	0.22	0.23	0.028	4.5	0.45	0.28	absence of APV inhibition	–	–	–	–
CC(C)(C)NC(=O)[C@@H]1C[C@@H]2CCCC[C@@H]2CN1C[C@@H](O)[C@H](Cc1ccccc1)NC(=O)[C@H](CC(N)=O)NC(=O)c1ccc2ccccc2n1 [SQV, saquinavir]	–	–	–	–	–	–	–	purely competitive inhibition	purely competitive inhibition	–	–
CC(C)CN(C[C@@H](O)[C@H](Cc1ccccc1)NC(=O)O[C@H]1CO[C@H]2OCC[C@H]21)S(=O)(=O)c1ccc(N)cc1 [DRV, darunavir]	1.2	0.5	–	–	1.7	0.3	inhibited the formation of PR dimers	–	–	exceptionally high affinity	greatly decreased dissociation rate
